Test results from paper PMC8151276, “An Integrated Approach toward NanoBRET Tracers for Analysis of GPCR Ligand Engagement” (Molecules, 2021).
Where “and” joins values, the source holds several entries; their conditions need not be identical. Equal entries are not always repeated. Where two headings read alike, the source gives them in different places.

Legend:
Format in all cases: binding
HTR2A = biological target: T1, HTR2A (Homo sapiens, UniProt P28223); assay: NanoBRET screen HiBiT-HTR2A in HEK293
T1 construct: purchased Promega (in-house HiBiT-GPCR construct library, NanoBRET)
T1 sequence (P28223 whole entry): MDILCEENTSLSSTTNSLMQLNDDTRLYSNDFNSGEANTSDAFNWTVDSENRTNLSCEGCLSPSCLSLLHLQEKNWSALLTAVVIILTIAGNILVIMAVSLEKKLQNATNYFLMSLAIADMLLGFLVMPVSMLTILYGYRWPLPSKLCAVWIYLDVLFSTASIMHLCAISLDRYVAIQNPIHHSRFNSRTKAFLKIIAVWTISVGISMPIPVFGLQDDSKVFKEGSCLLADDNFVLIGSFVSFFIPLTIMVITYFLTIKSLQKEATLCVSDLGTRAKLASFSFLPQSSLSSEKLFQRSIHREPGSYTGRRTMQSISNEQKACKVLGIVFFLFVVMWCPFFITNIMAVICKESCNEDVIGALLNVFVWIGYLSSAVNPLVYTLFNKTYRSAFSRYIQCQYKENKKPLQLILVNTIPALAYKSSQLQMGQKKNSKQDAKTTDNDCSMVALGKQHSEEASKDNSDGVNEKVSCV

LGR4 = biological target: T2, LGR4 (Homo sapiens, UniProt Q9BXB1); assay: NanoBRET screen HiBiT-LGR4 in HEK293
T2 construct: purchased Promega (in-house HiBiT-GPCR construct library, NanoBRET)
T2 sequence (Q9BXB1 25-951): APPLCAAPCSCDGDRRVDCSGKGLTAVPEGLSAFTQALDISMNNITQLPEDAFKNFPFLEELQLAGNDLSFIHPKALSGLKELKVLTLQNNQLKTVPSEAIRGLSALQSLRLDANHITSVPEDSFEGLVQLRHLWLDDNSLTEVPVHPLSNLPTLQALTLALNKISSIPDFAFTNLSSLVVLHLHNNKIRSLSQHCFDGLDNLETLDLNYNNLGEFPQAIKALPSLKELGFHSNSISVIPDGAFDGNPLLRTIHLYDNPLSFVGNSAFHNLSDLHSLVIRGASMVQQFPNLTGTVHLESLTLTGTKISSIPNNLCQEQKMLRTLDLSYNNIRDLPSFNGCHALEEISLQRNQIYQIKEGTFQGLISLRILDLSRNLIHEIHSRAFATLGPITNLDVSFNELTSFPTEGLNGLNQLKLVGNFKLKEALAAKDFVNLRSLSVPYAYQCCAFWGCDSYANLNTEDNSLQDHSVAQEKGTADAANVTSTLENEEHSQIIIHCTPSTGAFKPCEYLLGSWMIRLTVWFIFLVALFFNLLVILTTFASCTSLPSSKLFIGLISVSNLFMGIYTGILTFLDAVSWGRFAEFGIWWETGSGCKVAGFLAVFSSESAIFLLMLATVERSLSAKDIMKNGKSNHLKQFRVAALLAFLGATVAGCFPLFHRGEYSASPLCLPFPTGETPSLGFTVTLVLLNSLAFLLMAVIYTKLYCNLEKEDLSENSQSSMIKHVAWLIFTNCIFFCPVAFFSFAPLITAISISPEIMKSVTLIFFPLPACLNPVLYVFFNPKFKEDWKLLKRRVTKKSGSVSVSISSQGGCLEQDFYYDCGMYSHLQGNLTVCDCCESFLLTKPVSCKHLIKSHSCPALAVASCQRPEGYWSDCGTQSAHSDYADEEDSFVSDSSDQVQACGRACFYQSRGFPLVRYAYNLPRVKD
Procedure: (§1) Each tracer candidate was screened across the entire library of HiBiT-GPCR constructs using NanoBRET as the detection modality. As depicted in Figure 4A, the specificity of interactions was evaluated through decrease in BRET due to competitive displacement of a bound tracer by excess parental compound. Each tracer was analyzed for binding to each HiBiT-GPCR fusion in the absence and in the presence of competing parental compound. Briefly, HEK293 cells were transfected with HiBiT-GPCR constructs diluted into promoterless DNA to reduce expression and maximize translocation to the cell surface. Each tracer candidate was then screened at concentrations of 1 μM and 0.1 μM across cells expressing these fusions. Cells were treated for 1.5 h with tracer either alone or in the presence of 20 μM competing parental compound (i.e., control). BRET was measured upon addition of purified LgBiT and subsequent complementation with HiBiT genetically fused to a GPCR. The specificity of interactions was assessed through a decrease in BRET signal due to competitive displacement of the bound tracer. To further gauge the robustness of these interactions, the fold response over the control (i.e., BRETtracer/BRETcontrol) was calculated. We chose a 1.5-fold response, which translates to ≥7-fold signal over noise as the minimal threshold required to score an interaction as positive. […]. Below we highlight the screening results obtained for our exemplary fluorescent tracers based on Clozapine, Amitriptyline and AZD1283.
(§2) HiBiT-GPCR DNA constructs were diluted in 10 mM Tris pH 8 to a final concentration of 0.01 μg/μL, arrayed in 96-well plates and stored at −20 °C. For transfection, HEK293 cells were suspended in Opti-MEM (without phenol red) supplemented with 2% fetal bovine serum (Seradigm) and 100 units/mL penicillin–streptomycin (Gibco) at a final concentration of 220,000 cells/mL and dispensed into white 96-well plates at 90 μL/well. Subsequent transfections and screens were carried using an Agilent Bravo Automated Liquid Handling Platform. First, the 96-well HiBiT DNA arrays were diluted 25-fold in Opti-MEM (without serum or phenol red) to a final concentration of 0.0004 μg/μL and 20 μL of the diluted DNAs were transferred into new 96-well plates. Next, promoterless carrier DNA (1 μg/μL) was diluted 25-fold (0.04 μg/μL) and then dispensed into the diluted arrays at 20 μL/well. Following brief mixing, Viafect transfection reagent (Promega) diluted 16-fold into Opti-MEM was dispensed into the plates at 40 μL/well. After mixing by pipetting, plates were incubated for 10 min on the pipetting station deck. The DNA-transfection reagent complexes were then added to plates containing cells. To facilitate the screen, 10 μL of DNA-transfection reagent complexes were added in duplicates to the top 4 and bottom 4 rows, resulting in two identical 48-well arrays per plate. Plates with transfected cells were incubated for 18–20 h at 37 °C/5% CO2. A screen of each tracer across the entire library using two different concentrations requires duplicate plates of transfected cells. Depending on the number of tracers being screened, transfections can be scaled up using the same ratios. The next day, for each tracer, four 20× screening solutions in tracer dilution buffer (Promega) were prepared: two duplicates at final concentration of 20 μM and two duplicates at a final concentration of 2 μM. A competing unmodified compound was added to one of each duplicate at a final concentration of 400 μM. The four resulting solutions were diluted 4-fold in Opti-MEM without serum or phenol red to generate 5× solutions (5 µM and 0.5 µM tracer +/− 100 μM competing compound). To screen the library, a BioTek MultiFlo FX liquid dispenser was used to dispense 22.5 µL of tracer solution to the top 4 rows and 22.5 µL tracer + competing compound solution to the 4 bottom rows. Plates were briefly mixed on an orbital shaker and incubated for 1.5 h at room temperature. […]

MC4R = biological target: T3, MC4R (Homo sapiens, UniProt P32245); assay: NanoBRET screen HiBiT-MC4R in HEK293
T3 construct: purchased Promega (in-house HiBiT-GPCR construct library, NanoBRET)
T3 sequence (P32245 whole entry): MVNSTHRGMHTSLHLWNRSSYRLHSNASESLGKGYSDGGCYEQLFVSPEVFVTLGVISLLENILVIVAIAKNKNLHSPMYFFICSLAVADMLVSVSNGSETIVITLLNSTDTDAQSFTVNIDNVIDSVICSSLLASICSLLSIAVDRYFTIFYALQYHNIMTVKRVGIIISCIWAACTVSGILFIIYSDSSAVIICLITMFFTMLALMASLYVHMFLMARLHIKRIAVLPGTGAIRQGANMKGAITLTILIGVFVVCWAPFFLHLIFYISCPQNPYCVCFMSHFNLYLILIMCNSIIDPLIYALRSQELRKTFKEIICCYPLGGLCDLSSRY
Procedure: as §1, §2

GRM1 = biological target: T4, GRM1 (Homo sapiens, UniProt Q13255); assay: NanoBRET screen HiBiT-GRM1 in HEK293
T4 construct: purchased Promega (in-house HiBiT-GPCR construct library, NanoBRET)
T4 sequence (Q13255 19-1194): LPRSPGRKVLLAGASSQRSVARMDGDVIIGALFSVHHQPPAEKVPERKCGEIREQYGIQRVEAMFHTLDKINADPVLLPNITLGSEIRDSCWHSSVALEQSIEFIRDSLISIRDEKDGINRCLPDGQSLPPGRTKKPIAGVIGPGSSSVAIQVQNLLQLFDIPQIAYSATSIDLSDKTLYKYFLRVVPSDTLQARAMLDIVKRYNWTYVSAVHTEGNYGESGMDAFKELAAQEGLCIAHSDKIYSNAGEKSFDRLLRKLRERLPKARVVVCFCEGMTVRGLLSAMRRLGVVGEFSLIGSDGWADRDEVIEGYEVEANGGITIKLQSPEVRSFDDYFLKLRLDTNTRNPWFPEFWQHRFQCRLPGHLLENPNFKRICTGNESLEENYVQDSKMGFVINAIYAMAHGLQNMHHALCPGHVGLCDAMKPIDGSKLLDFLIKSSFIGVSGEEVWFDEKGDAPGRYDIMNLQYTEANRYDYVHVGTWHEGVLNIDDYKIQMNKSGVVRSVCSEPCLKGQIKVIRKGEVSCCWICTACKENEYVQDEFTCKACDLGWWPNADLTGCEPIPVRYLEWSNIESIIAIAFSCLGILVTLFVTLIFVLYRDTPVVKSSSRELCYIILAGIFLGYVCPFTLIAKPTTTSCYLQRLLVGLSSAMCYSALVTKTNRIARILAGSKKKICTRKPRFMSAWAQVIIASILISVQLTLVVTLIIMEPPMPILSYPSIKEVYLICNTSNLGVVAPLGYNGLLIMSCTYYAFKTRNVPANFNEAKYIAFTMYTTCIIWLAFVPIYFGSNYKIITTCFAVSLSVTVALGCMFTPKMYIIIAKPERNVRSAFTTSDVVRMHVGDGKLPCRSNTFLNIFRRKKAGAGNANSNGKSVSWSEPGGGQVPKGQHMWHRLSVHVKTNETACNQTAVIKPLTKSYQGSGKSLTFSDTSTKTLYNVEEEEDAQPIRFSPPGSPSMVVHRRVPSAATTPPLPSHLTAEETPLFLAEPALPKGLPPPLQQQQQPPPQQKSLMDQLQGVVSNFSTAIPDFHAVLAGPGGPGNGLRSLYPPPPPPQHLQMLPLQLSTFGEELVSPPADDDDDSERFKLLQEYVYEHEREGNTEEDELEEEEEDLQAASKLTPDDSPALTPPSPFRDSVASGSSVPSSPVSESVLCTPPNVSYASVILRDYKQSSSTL
Procedure: as §1, §2

Which results are given for `COc1ccc2[nH]c(-c3ccc(CNC(=O)CCOCCOCCOCCOCCNC(=O)CCc4ccc5n4[B-](F)(F)[N+]4=C(c6ccc[nH]6)C=CC4=C5)cc3)c(CCNC(C)=O)c2n1` [AzomelatoninICO9-2-NB590]?
NanoBRET Fold Response (HTR2A; 0.1μM tracer): 0.92; NanoBRET Fold Response (HTR2A; 1μM tracer): 1.02; NanoBRET Fold Response (LGR4; 0.1μM tracer): 1.10; NanoBRET Fold Response (LGR4; 1μM tracer): 1.00; NanoBRET Fold Response (MC4R; 0.1μM tracer): 0.92; NanoBRET Fold Response (MC4R; 1μM tracer): 0.98; NanoBRET Fold Response (GRM1; 0.1μM tracer): 0.66; NanoBRET Fold Response (GRM1; 1μM tracer): 1.33

How did the “NanoBRET Fold Response” value (HTR2A) turn out when `COc1ccccc1N1CCN(CCCCN2C(=O)c3ccc(CNC(=O)CCOCCOCCOCCOCCNC(=O)CCc4ccc5n4[B-](F)(F)[N+]4=C(c6ccc[nH]6)C=CC4=C5)cc3C2=O)CC1` [NAN-190-2-NB590] was run?
Its value is 0.97.

What about the “NanoBRET Fold Response” value (LGR4; LGR4, tracer 0.1μM) of the same compound?
Its value is 1.09.

What about the “NanoBRET Fold Response” value (LGR4; LGR4, tracer 1μM) of the same compound?
Its value is 0.99.

And the “NanoBRET Fold Response” value (MC4R; MC4R, tracer 0.1μM)?
Its value is 0.97.

And the “NanoBRET Fold Response” value (MC4R; MC4R, tracer 1μM)?
Its value is 1.01.

What about the “NanoBRET Fold Response” value (GRM1; GRM1, tracer 0.1μM) of the same compound?
The value was 0.35.

And the “NanoBRET Fold Response” value (GRM1; GRM1, tracer 1μM)?
Its value is 0.92.

Which “NanoBRET Fold Response” value (HTR2A; HTR2A, 0.1μM tracer) does the source give for `O=C(CCOCCOCCOCCOCCNC(=O)CCc1ccc2n1[B-](F)(F)[N+]1=C(c3ccc[nH]3)C=CC1=C2)NCCCN1CCN(C2=Nc3cc(Cl)ccc3Nc3ccccc32)CC1` [Clozapine-a-2-NB590] here?
The value was 2.26.

What about the “NanoBRET Fold Response” value (HTR2A; HTR2A, 1μM tracer) of the same compound?
Its value is 2.01.

And the “NanoBRET Fold Response” value (LGR4; LGR4, 0.1μM tracer)?
The value was 1.02.

What about the “NanoBRET Fold Response” value (LGR4; LGR4, 1μM tracer) of the same compound?
Its value is 0.99.

And the “NanoBRET Fold Response” value (MC4R; MC4R, 0.1μM tracer)?
The value was 1.02.

What about the “NanoBRET Fold Response” value (MC4R; MC4R, 1μM tracer) of the same compound?
The value was 1.01.

And the “NanoBRET Fold Response” value (GRM1; GRM1, 0.1μM tracer)?
Its value is 1.42.

What about the “NanoBRET Fold Response” value (GRM1; GRM1, 1μM tracer) of the same compound?
Its value is 0.90.

With `N#CN=C(NCCCOc1cccc(CN2CCCCC2)c1)NCCNC(=O)CCOCCOCCOCCOCCNC(=O)CCc1ccc2n1[B-](F)(F)[N+]1=C(c3ccc[nH]3)C=CC1=C2` [Aminopotentidine-2-NB590] as the compound, how does the “NanoBRET Fold Response” value (HTR2A; HTR2A, tracer 0.1μM) read?
Its value is 0.98.

And the “NanoBRET Fold Response” value (HTR2A; HTR2A, tracer 1μM)?
Its value is 1.02.

And the “NanoBRET Fold Response” value (LGR4; LGR4, tracer 0.1μM)?
The value was 1.01.

What about the “NanoBRET Fold Response” value (LGR4; LGR4, tracer 1μM) of the same compound?
Its value is 1.02.

What about the “NanoBRET Fold Response” value (MC4R; MC4R, tracer 0.1μM) of the same compound?
Its value is 0.99.

And the “NanoBRET Fold Response” value (MC4R; MC4R, tracer 1μM)?
Its value is 0.89.

And the “NanoBRET Fold Response” value (GRM1; GRM1, tracer 0.1μM)?
Its value is 0.59.

And the “NanoBRET Fold Response” value (GRM1; GRM1, tracer 1μM)?
Its value is 0.94.

For `COc1ccccc1N1CCN(CCCCN2C(=O)c3ccc(CNC(=O)CCOCCNC(=O)c4ccc(CNC(=O)CCc5ccc6n5[B-](F)(F)[N+]5=C(c7ccc[nH]7)C=CC5=C6)cc4)cc3C2=O)CC1` [NAN-190-3-NB590], which “NanoBRET Fold Response” value (HTR2A) is on record?
The value was 1.14 and 1.13.

What about the “NanoBRET Fold Response” value (LGR4; LGR4, tracer 0.1μM) of the same compound?
The value was 0.88.

What about the “NanoBRET Fold Response” value (LGR4; LGR4, tracer 1μM) of the same compound?
The value was 0.95.

What about the “NanoBRET Fold Response” value (MC4R; MC4R, tracer 0.1μM) of the same compound?
Its value is 1.05.

And the “NanoBRET Fold Response” value (MC4R; MC4R, tracer 1μM)?
Its value is 0.83.

What about the “NanoBRET Fold Response” value (GRM1; GRM1, tracer 0.1μM) of the same compound?
Its value is 1.03.

And the “NanoBRET Fold Response” value (GRM1; GRM1, tracer 1μM)?
Its value is 1.12.

For `CCCn1c(=O)c2[nH]c(-c3ccc(OCC(=O)NCCNC(=O)CCOCCNC(=O)c4ccc(CNC(=O)CCc5ccc6n5[B-](F)(F)[N+]5=C(c7ccc[nH]7)C=CC5=C6)cc4)cc3)nc2n(CCC)c1=O` [XAC-3-NB590], which “NanoBRET Fold Response” value (HTR2A; HTR2A, tracer 0.1μM) is on record?
The value was 0.99.

What about the “NanoBRET Fold Response” value (HTR2A; HTR2A, tracer 1μM) of the same compound?
Its value is 1.10.

And the “NanoBRET Fold Response” value (LGR4; LGR4, tracer 0.1μM)?
Its value is 1.02.

And the “NanoBRET Fold Response” value (LGR4; LGR4, tracer 1μM)?
The value was 0.99.

What about the “NanoBRET Fold Response” value (MC4R; MC4R, tracer 0.1μM) of the same compound?
The value was 1.02.

And the “NanoBRET Fold Response” value (MC4R; MC4R, tracer 1μM)?
Its value is 1.04.

And the “NanoBRET Fold Response” value (GRM1; GRM1, tracer 0.1μM)?
Its value is 0.63.

And the “NanoBRET Fold Response” value (GRM1; GRM1, tracer 1μM)?
The value was 0.80.

With `COc1ccc2c(n1)c(CCNC(C)=O)cn2CCNC(=O)CCc1ccc2n1[B-](F)(F)[N+]1=C(c3ccc[nH]3)C=CC1=C2` [Azamelatonin-1-NB590] as the compound, how does the “NanoBRET Fold Response” value (HTR2A; 0.1μM tracer) read?
Its value is 1.06.

What about the “NanoBRET Fold Response” value (HTR2A; 1μM tracer) of the same compound?
Its value is 1.06.

And the “NanoBRET Fold Response” value (LGR4; 0.1μM tracer)?
The value was 1.20.

What about the “NanoBRET Fold Response” value (LGR4; 1μM tracer) of the same compound?
The value was 0.99.

What about the “NanoBRET Fold Response” value (MC4R; 0.1μM tracer) of the same compound?
Its value is 0.87.

What about the “NanoBRET Fold Response” value (MC4R; 1μM tracer) of the same compound?
Its value is 1.03.

What about the “NanoBRET Fold Response” value (GRM1; 0.1μM tracer) of the same compound?
Its value is 1.27.

What about the “NanoBRET Fold Response” value (GRM1; 1μM tracer) of the same compound?
Its value is 0.47.
